Patent publication US20150010474A1, “Compounds And Methods For Selective Imaging And/Or Ablation” (Auckland Uniservices Limited, priority 2011, published 2015)

Legend:
[1] = system: HCT116 wild type (WT) cancer cells; experiment: Inhibition of cell proliferation, low cell density IC50 assay; assay type: cell-based; settings: Homo sapiens, HCT-116; 4 hour drug exposure, washing and regrowth for 5 days
Experimental: (§1) IC50 values were determined as the concentration of prodrug required to inhibit cell growth by 50% of untreated controls following 4 hour drug exposure, with washing and regrowth for 5 days. WT:NfsA ratios were determined as the WT IC50/NfsA IC50.

[2] = system: HCT116 cells overexpressing the nitroreductase NfsA from E. coli; experiment: as above; assay type: cell-based, human; settings: for IC50: Homo sapiens, HCT-116, 4 hour drug exposure, washing and regrowth for 5 days; for WT:NfsA: WT IC50/NfsA IC50
Experimental: as §1

[3] = cited from earlier work
[4] = system: HCT-116 cells stably over-expressing cytochrome P450 reductase (CYPOR); experiment: Flow cytometry of metabolism and binding (EF5 antibody); assay type: cell-based, human; settings: 2 h
Experimental: FIG. 4 illustrates the results of a second independent flow cytometry analysis of compound 15 and 93 metabolism and binding in wild-type HCT-116 cells, HCT-116 cells stably over-expressing cytochrome P450 reductase (CYPOR), a human one-electron reductase known to metabolise nitroheterocyclic and nitroaromatic compounds, or HCT-116 cells stably expressing the bacterial nitroreductase E. coli NfsA. 1×10^6HCT-116 cells were seeded in 6 well plates underaerobic conditions (21% O2, 5% CO2). After 2 h incubation, drug free control (wild-type HCT-116, foreground), 20 μM (wild-type HCT-116, second plot), 100 μM (wild-type HCT-116, third plot), 20 μM (HCT-116-CYPOR, forth plot), 100 μM (HCT-116-CYPOR, fifth plot) or 20 μM (HCT-116-NfsA, sixth plot) of compound 15 or 93 was added. After 2 h incubation cells were harvested and fixed with paraformaldehyde before being incubated overnight with 100 μl of 75 μg/ml EF5 CY5 conjugated antibody. Samples were then analysed on a Becton Dickinson FACscan flow cytometer.
FIG. 5 illustrates the results of flow cytometry analysis of HCT-116 cells stably over-expressing cytochrome P450 reductase (CYPOR), a human one-electron reductase known to metabolise nitroheterocyclic and nitroaromatic compounds. 1×10^6HCT-116-CYPOR cells were seeded in 6 well plates in aerobic, anoxic and 0.2% oxygen conditions designed to replicate the lower limit of pathological hypoxia observed in human tumours. After 2 h incubation, drug free control (foreground), 20 μM (middle) or 100 μM (background) of compound 15 or 67 was added. After 2 h incubation cells were harvested and fixed with paraformaldehyde before being incubated overnight with 100 μl of 75 μg/ml EF5 CY5 conjugated antibody. Samples were then analysed on a Becton Dickinson FAC scan flow cytometer.
FIG. 6 illustrates the results of flow cytometry analysis of compound 15 and 93 metabolism and binding in wild-type HCT-116 cells and HCT-116 cells stably over-expressing cytochrome P450 reductase (CYPOR), a human one-electron reductase known to metabolise nitroheterocyclic and nitroaromatic compounds. 1×10^6 HCT-116 cells were seeded in 6 well plates underanoxic conditions. After 2 h incubation, drug free control (wild-type HCT-116, foreground), 20 μM (wild-type HCT-116, second plot), 100 μM (wild-type HCT-116, third plot), 20 μM (HCT-116-CYPOR, forth plot) or 100 μM (HCT-116-CYPOR, fifth plot) of compound 15 or 93 was added. After 2 h incubation cells were harvested and fixed with paraformaldehyde before being incubated overnight with 100 μl of 75 μg/ml EF5 CY5 conjugated antibody. Samples were then analysed on a Becton Dickinson FACscan flow cytometer.

[5] = system: nfsA expressing HCT116 cells; settings: 0.7 mM-hr cold EF5; cited from earlier work
[6] = molecular target: T1, NfsA (E.c) (Escherichia coli, UniProt P17117); experiment: Initial rate of metabolism by purified recombinant bacterial nitroreductase (NADPH consumption, UV/Vis); assay type: biochemical; settings: compound 500 μM, NADPH 200 μM, 10 mM Tris-Cl pH 7.0; μmol NADPH consumed per mg enzyme per minute
T1 construct: made in house
Experimental: (§2) The relative initial rates of reductive metabolism of the nitro moiety of test compounds by bacterial nitroreductase's can be measured experimentally by incubating the test compound at near-saturating concentration (determined empirically) with the purified recombinant bacterial nitroreductase enzymes in the presence of NADPH co-factor. UV/Vis spectroscopy is used to measure consumption of the co-factor, indicating metabolism of the test compound by the nitroreductase.
(§3) Compounds 67, 93 and 97 (500 μM) were added to NADPH (200 μM) in 10 mM Tris-Cl pH 7.0. Reactions were initiated by enzyme addition (between 5 and 20 μg per reaction). Rates represent μmol of NADPH consumed per mg enzyme added per minute.

[7] = molecular target: T2, YcnD (B.s) (Bacillus subtilis, UniProt P94424); experiment: as above; assay type: biochemical; settings: compound 500 μM, NADPH 200 μM, 10 mM Tris-Cl pH 7.0; μmol NADPH consumed per mg enzyme per minute
T2 construct: made in house
Experimental: as §2, §3

[8] = molecular target: T3, NfsB (E.c) (Escherichia coli, UniProt P38489); experiment: as above; assay type: biochemical; settings: compound 500 μM, NADPH 200 μM, 10 mM Tris-Cl pH 7.0; μmol NADPH consumed per mg enzyme per minute
T3 construct: made in house
Experimental: as §2, §3

[9] = molecular target: T4, NfrA (B.s) (Bacillus subtilis, UniProt P39605); experiment: as above; assay type: biochemical; settings: compound 500 μM, NADPH 200 μM, 10 mM Tris-Cl pH 7.0; μmol NADPH consumed per mg enzyme per minute
T4 construct: made in house
Experimental: as §2, §3

[10] = system: bacterial nitroreductase over-expressing E. coli strains; experiment: IC50 (turbidity) in selected NTR over-expressing library strains; assay type: cell-based, Escherichia coli; settings: 4 h post-challenge, serial dilution
Experimental: FIG. 2.3 illustrates the IC50 of compound 67 for selected NTR library strains (i.e. the concentration of compound 67 that yielded only 50% turbidity relative to an unchallenged control 4 h post-challenge, in replicate cultures across a serial dilution of compound 67). The strains selected were all those observed to have SOS activity above the empty plasmid control (“Empty”) in response to challenge with compound 67 as illustrated in FIG. 2(B), plus NfsB (E.c) as a negative control. For the IC50 assays, 100 μl of overnight cultures were used to inoculate 2 ml M63 minimal medium supplemented with 100 μg·ml^−1 ampicillin and 50 μM IPTG and incubated at 30° C., 200 rpm for 3.5 h. 40 μL aliquots from each culture were then added to individual wells of a sterile 384 well plate, each already containing 40 μl of ampicillin and IPTG-supplemented M63 medium and a dilution series of compound 67 as indicated on the X-axis of panel A. A. Raw growth curves. Each NTR over-expression strain was tested at least in duplicate (independent replicates), with the exception of NfsB (E.c), which was only measured once. Culture turbidity was monitored by optical density at 600 nm 4 h post-challenge. B. IC50 values calculated by comparison of the challenged cells with the unchallenged control for each strain, after subtracting the initial absorbance values (t=0 h), using SigmaPlot 10.0 (Systat Software Inc., Richmond, Calif.). Errors are 1 standard error of the mean (SEM).
(§4) FIG. 2.4 illustrates the IC50 of compound 93 for selected NTR library strains. […] B. IC50 values calculated by comparison of the challenged cells with the unchallenged control for each strain, after subtracting the initial absorbance values (t=0 h), using SigmaPlot 10.0 (Systat Software Inc., Richmond, Calif.). […]
as §4, with “2.5” for “2.4”, “97” for “93”

[11] = system: NTR over-expressing E. coli SOS-R2; experiment: Growth Inhibition assay in 58-membered NTR over-expression library; assay type: cell-based, Escherichia coli; settings: 4 h incubation
[12] = system: human solid tumour xenograft NCI-H1299 (WT); experiment: Hypoxia-dependent binding by ex vivo flow cytometry with pimonidazole co-staining; assay type: in vivo, NIH-III nude mice; settings: 60 mg/kg i.p.; tumours excised after 120 minutes, single cell suspension
Experimental: FIG. 11 illustrates the absence of hypoxic-dependent binding of compound 67 and compound 93 by flow cytometry in the human solid tumour xenograft NCI-H1299, with reference to hypoxia staining by compound 15 and pimonidazole (Hypoxyprobe™) as internal standards (positive controls). NCI-H1299 WT tumours were inoculated subcutaneously onto the flank of NIH-III nude mice. When the mixed tumours reached approximately 800 mm^3, mice were dosed i.p. with 60 mg/kg of pimonidazole, and 60 minutes later dosed with either 60 mg/kg of compound 15, or 60 mg/kg of compound 67, or 60 mg/kg of compound 93. After 120 minutes the tumours were excised and enzyme digested to form a single cell suspension before fixation in ice cold 80% ethanol. Single cell immunodetection of bound adducts of compounds was performed using a monoclonal antibody (Mab1, hybridoma clone 4.3.11.3) conjugated to Alexa-488 (Ex/Em 499/519; green) for the detection of pimonidazole adducts, and monoclonal antibody ELK3-51 directly conjugated to the fluorophore CY5 (Ex/Em 650/670 nm; red) for detection of adducts formed by compound 15 or compound 67 or compound 93. The ex-vivo tumour cell samples were analysed on a Becton Dickinson FACscan flow cytometer using FACS Diva software. Integrated fluorescence measurements were recorded for 10,000 single non-debris events. Fluorescence emission was monitored at 530 nm±20 and 670-700 nm for detection of Alexa-488 and CY5 conjugated monoclonal antibodies, respectively.

T1 sequence (P17117 whole entry): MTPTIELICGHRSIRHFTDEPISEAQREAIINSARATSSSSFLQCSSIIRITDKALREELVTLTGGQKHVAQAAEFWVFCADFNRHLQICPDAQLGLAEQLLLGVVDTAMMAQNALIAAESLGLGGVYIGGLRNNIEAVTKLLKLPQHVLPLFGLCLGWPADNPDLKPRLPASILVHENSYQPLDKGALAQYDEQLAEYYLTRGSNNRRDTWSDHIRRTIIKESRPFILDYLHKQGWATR
T2 sequence (P94424 whole entry): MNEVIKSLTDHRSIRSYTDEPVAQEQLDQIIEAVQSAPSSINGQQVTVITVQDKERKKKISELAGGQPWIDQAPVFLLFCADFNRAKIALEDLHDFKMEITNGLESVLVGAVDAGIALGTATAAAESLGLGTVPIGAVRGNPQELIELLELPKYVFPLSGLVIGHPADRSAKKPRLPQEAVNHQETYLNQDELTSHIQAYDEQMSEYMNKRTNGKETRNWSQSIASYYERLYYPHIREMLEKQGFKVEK
T4 sequence (P39605 whole entry): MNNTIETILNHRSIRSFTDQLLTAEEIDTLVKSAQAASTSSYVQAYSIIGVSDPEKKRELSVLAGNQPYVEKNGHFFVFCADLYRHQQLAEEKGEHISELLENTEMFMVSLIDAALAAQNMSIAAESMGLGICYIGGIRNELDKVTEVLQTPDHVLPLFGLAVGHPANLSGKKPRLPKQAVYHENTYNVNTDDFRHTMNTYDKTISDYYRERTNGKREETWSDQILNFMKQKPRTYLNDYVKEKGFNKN
T3 sequence (P38489 whole entry): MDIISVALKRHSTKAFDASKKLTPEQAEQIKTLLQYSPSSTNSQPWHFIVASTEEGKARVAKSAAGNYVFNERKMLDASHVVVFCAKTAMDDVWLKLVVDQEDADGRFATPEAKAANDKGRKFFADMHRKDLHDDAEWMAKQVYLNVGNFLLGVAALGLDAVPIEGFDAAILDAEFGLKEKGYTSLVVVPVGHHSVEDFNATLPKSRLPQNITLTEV

O=C(Cn1ccnc1[N+](=O)[O-])NCC(F)(F)C(F)(F)F [Compound 15, 2-(2-nitro-1H-imidazol-1-yl)-N-(2,2,3,3,3-pentafluoropropyl)acetamide]
IC50 [1]: 2270 µM
IC50 [2]: 1 µM
WT:NfsA [2]: 2270
Concentration-time achieved in human plasma ([3]; cold EF5 9 mg/kg): 0.89 mM-hr
Plasma AUC ([3]; dose of 21 mg/kg injected): 2 mM-hr
Tolerability of injected dose ([3]; dose of 21 mg/kg): safely injected without any toxicities
Metabolism and binding by FACS, HCT-116-CYPOR cells (FIG. 4) ([4]; 20 μM and 100 μM, aerobic conditions): minimal metabolism and binding
Metabolism and binding by FACS, HCT-116-CYPOR cells, anoxia (FIG. 6) ([4]; 20 μM and 100 μM, anoxic conditions): significant dose-dependent and reductase dependent increases in metabolism and binding
Metabolism and binding by FACS, HCT-116-CYPOR cells, 0.2% oxygen (FIG. 5) ([4]; 20 μM or 100 μM, 0.2% oxygen): Significant dose-dependent increases in metabolism
Metabolism and binding by FACS, HCT-116-CYPOR cells, aerobic (FIG. 5) ([4]; 20 μM or 100 μM, aerobic): negligible metabolism and binding
Metabolism and binding by FACS, HCT-116-CYPOR cells, anoxia (FIG. 5) ([4]; 20 μM or 100 μM, anoxia): Significant dose-dependent increases in metabolism
Loss of viability for nfsA expressing HCT116 cells [5]: 90%

O=[N+]([O-])c1nccn1Cc1cn(C(CO)CF)nn1 (stereo not drawn) [Compound 19, reference compound]
IC50 [1]: > 12500 µM
IC50 [2]: 16 µM
WT:NfsA [2]: >781

O=[N+]([O-])c1cn(Cc2cn(C(CO)CF)nn2)cn1 (stereo not drawn) [Compound 97, 3-fluoro-2-(4-((4-nitro-1H-imidazol-1-yl)methyl)-1H-1,2,3-triazol-1-yl)propan-1-ol]
melting point: 126 to 129 °C
Rate of metabolism by NfsA (E.c) [6]: 4.3 µmol/min/mg
Rate of metabolism by YcnD (B.s) [7]: 6.2 µmol/min/mg
Rate of metabolism by NfsB (E.c) [8]: 1.4 µmol/min/mg
Rate of metabolism by NfrA (B.s) [9]: 3.9 µmol/min/mg
IC50 [1]: > 12500 µM
IC50 [2]: 178 µM
WT:NfsA [2]: >70
Inhibition of bacterial cell growth in NTR over-expressing strains compared to controls [10]: Inhibition of bacterial cell growth was selectively observed
Reductive metabolism at the nitro moiety by NTR library members (NfsA and NfsB families) ([11]; 400 μM compound 67, 130 μM compound 93, 800 μM compound 97): reductively metabolised at the nitro moiety by the majority of the NfsA and NfsB families tested
Metabolism by members of the NemA nitroreductase family ([11]; 800 μM compound 97): Modest metabolism

O=[N+]([O-])c1nccn1CC(O)CN1CCCCC1 (stereo not drawn) [pimonidazole, reference compound]
Hypoxia-dependent binding in NCI-H1299 WT tumours, flow cytometry (FIG. 11) [12]: hypoxic cells that are detected by pimonidazole adduct retention
